# Measured values reported in patent US11993588B2, “Crystalline forms of a MAGL inhibitor” (H. Lundbeck A/S, priority 2016, dated 2024).
# Key:
# Format in all cases: physicochemical
# [1] = Solvent solubility screen for Compound 2; conditions: amorphous HCl salt; for solubility: 40 °C, thermodynamic from solid, read-out: Approximate Solubility
# Experimental: Approximately 10 mg of amorphous HCl salt (from 500 mg batch) was placed in each of 28 vials and 5 volume aliquots of the appropriate solvent systems were added to the appropriate vial. Between each addition, the mixture was checked for dissolution and if no dissolution was apparent, the mixture was heated to ca. 40° C. and checked again. This procedure was continued until dissolution was observed or 100 volumes of solvent had been added. Then a further addition of 100 volumes was added to samples which had not dissolved. If 200 volumes of solvent were added without dissolution of the material, solubility was calculated to be below this point.
# [2] = Gravimetric vapor sorption (GVS); conditions: for weight uptake / hygroscopic nature: GVS; for weight uptake: at 90% RH; for Post-GVS analysis by XRPD (form change): after GVS sorption/desorption cycle
# Experimental: Approximately 10 mg of sample was placed into a mesh vapour sorption balance pan and loaded into an IGASorp Moisture Sorption Analyser balance by Hiden Analytical. The sample was subjected to a ramping profile from 40-90% relative humidity (RH) at 10% increments, maintaining the sample at each step until a stable weight had been achieved (98% step completion). After completion of the sorption cycle, the sample was dried using the same procedure to 0% RH, and finally taken back to the starting point of 40% RH. The weight change during the sorption/desorption cycles were plotted, allowing for the hygroscopic nature of the sample to be determined.
# [3] = Dynamic vapor sorption (DVS)
# Experimental: Approximately 10 mg of sample was placed into a mesh vapour sorption balance pan and loaded into a DVS-1 dynamic vapour sorption balance by Surface Measurement Systems. The sample was subjected to a ramping profile from 40-90% relative humidity (RH) at 10% increments, maintaining the sample at each step until a stable weight had been achieved (99.5% step completion). After completion of the sorption cycle, the sample was dried using the same procedure to 0% RH and then a second sorption cycle back to 40% RH. The weight changes during the sorption/desorption cycles were plotted, allowing for the hygroscopic nature of the sample to be determined. XRPD analysis was then carried out on any solid retained.
# 7-day stability testing = assay: 7-day stability testing
# Experimental: (§1) Form 2 of Compound 2 was scaled up in two solvents. Material underwent 7-day stability testing and/or aqueous solubility assessment. The 7-day stability testing was conducted as follows. Material was exposed to environments of 40° C./75% RH, ambient light and 80° C. for 7 days and the resulting solids analysed by XRPD to determine if any changes had occurred, and by HPLC to determine purity. The aqueous solubility assessment was conducted as follows. A slurry was created in deionised water (5.1 mg of Form 2 and 300 μL of water) and shaken for ca. 24 hours at ambient temperature (ca. 22° C.). The initial pH and final pH were measured. The resulting mixture was then isolated by centrifuge filtration, and the solution obtained analysed by HPLC to calculate the concentration of material dissolved. Remaining solid was analysed by XRPD to determine if any changes had occurred on slurrying.
# [4] = Aqueous solubility assessment
# Experimental: as §1
# [5] = Solubility measurement in t-BME; conditions: organic solvent or mixture, thermodynamic from solid; solvent addition method, 10 mg sample, up to 100 mL t-BME
# Experimental: Solubility of Form 1 of Compound 2 was measured using the solvent addition method as described in Example 14 on 10 mg of sample. t-BME was added in 1 mL aliquots up to 10 mL, then in 5 mL and 10 mL aliquots up to a total volume of 100 mL.
# [6] = Competitive slurrying of Form 1 and 2 mixtures; conditions: 50:50 Form 1 and 2 slurries in acetone, ethyl acetate, methylethyl ketone, 2-propanol; 60° C. and ambient, ca. 48 hours
# Experimental: Four solvents (acetone, ethyl acetate, methylethyl ketone, and 2-propanol) were chosen for competitive slurrying. Saturated solutions were prepared of Form 1 in the chosen solvents and added to 20 mg of 50:50 Form 1 and 2 mixtures to create slurries. The slurries were shaken at 60° C. and ambient temperature for ca. 48 hours. Solids were then isolated by centrifuge filtration and analysed by XRPD.
# [7] = Heating to 140° C., cooling and XRPD; conditions: heated to 140° C. and allowed to cool
# Experimental: Material from Compound 2 (Form 1) was also heated to 140° C. and allowed to cool. The material was analysed by XRPD (FIG. 12), to determine any form change, which could be consistent with a solid-solid transition.
# [8] = listed as Form 1 of Compound 2, mono-HCl salt
# [9] = listed as Form 2 (Compound 2), mono-HCl salt
smiles,measurement,setting,value
"Cl.O=C(OC(C(F)(F)F)C(F)(F)F)N1CCN(Cc2ccc(C(F)(F)F)cc2N2CCCC2)CC1 [Compound 2, 1,1,1,3,3,3-hexafluoropropan-2-yl 4-(2-(pyrrolidin-1-yl)-4-(trifluoromethyl)benzyl)piperazine-1-carboxylate mono-HCl salt]",solubility,"[1]; aqueous with cosolvent or surfactant or cyclodextrin, 2-Propanol:water (50%), partial dissolution",< 5 mg/mL
same,solubility,"[1]; aqueous with cosolvent or surfactant or cyclodextrin, Acetone:water (50%), partial dissolution",< 5 mg/mL
same,solubility,"[1]; aqueous with cosolvent or surfactant or cyclodextrin, Methanol:water (50%)",< 5 mg/mL
same,solubility,"[1]; organic solvent or mixture, 1,4-Dioxane",5 mg/mL
same,solubility,"[1]; organic solvent or mixture, 1-Butanol",< 5 mg/mL
same,solubility,"[1]; organic solvent or mixture, 2-Ethoxyethanol, precipitated overnight",49 mg/mL
same,solubility,"[1]; organic solvent or mixture, 2-Methyl tetrahydrofuran",< 5 mg/mL
same,solubility,"[1]; organic solvent or mixture, 2-Propanol",5 mg/mL
same,solubility,"[1]; organic solvent or mixture, Acetone",40 mg/mL
same,solubility,"[1]; organic solvent or mixture, Acetonitrile",40 mg/mL
same,solubility,"[1]; organic solvent or mixture, Anisole, partial dissolution",< 5 mg/mL
same,solubility,"[1]; organic solvent or mixture, Dichloromethane, precipitated overnight",70 mg/mL
same,solubility,"[1]; organic solvent or mixture, Diisopropyl Ether",< 5 mg/mL
same,solubility,"[1]; organic solvent or mixture, Dimethylacetamide",99 mg/mL
same,solubility,"[1]; organic solvent or mixture, Dimethylformamide",99 mg/mL
same,solubility,"[1]; organic solvent or mixture, Dimethylsulfoxide",66 mg/mL
same,solubility,"[1]; organic solvent or mixture, Ethanol",33 mg/mL
same,solubility,"[1]; organic solvent or mixture, Ethyl acetate",5 mg/mL
same,solubility,"[1]; organic solvent or mixture, Isopropyl acetate",< 5 mg/mL
same,solubility,"[1]; organic solvent or mixture, Methanol",101 mg/mL
same,solubility,"[1]; organic solvent or mixture, Methyl isobutyl ketone, partial dissolution",< 5 mg/mL
same,solubility,"[1]; organic solvent or mixture, Methylethyl ketone",28 mg/mL
same,solubility,"[1]; organic solvent or mixture, N-Methyl-2-pyrrolidone",101 mg/mL
same,solubility,"[1]; organic solvent or mixture, Tetrahydrofuran, precipitated overnight",25 mg/mL
same,solubility,"[1]; organic solvent or mixture, Toluene",< 5 mg/mL
same,solubility,"[1]; organic solvent or mixture, tert-Amyl alcohol",< 5 mg/mL
same,solubility,"[1]; organic solvent or mixture, tert-Butylmethyl ether",< 5 mg/mL
same,solubility,[1]; Water,< 5 mg/mL
same,concentration at which dissolution was initially observed,"[1]; Acetone:water (50%), precipitated after ca. 2 h",18000 µg/mL
same,weight uptake,[2]; [8],< 0.1%
same,weight uptake,[2]; [9],< 0.08%
same,hygroscopic nature,[2]; [8],very non-hygroscopic
same,hygroscopic nature,[2]; [9],(very) non-hygroscopic
same,Post-GVS analysis by XRPD (form change),[2]; [8],remain unchanged
same,Post-GVS analysis by XRPD (form change),[2]; [9],remained the same crystalline form
same,hygroscopic nature,[3]; DVS,non-hygroscopic
same,total uptake,"[3]; DVS, at 90% RH",< 0.12%
same,Post-DVS XRPD analysis (form change),[3]; after DVS cycle,remain the same crystalline form
same,HPLC purity after stability testing,7-day stability testing; 40° C./75% RH for 7 days,> 99.9%
same,solid form by XRPD after stability testing,"7-day stability testing; 40° C./75% RH, ambient light and 80° C. for 7 days",remain the same form
same,HPLC purity after stability testing,7-day stability testing; 80° C. for 7 days,99.9%
same,HPLC purity after stability testing,7-day stability testing; ambient light / ambient conditions for 7 days,> 99.9%
same,dissociation of the salt in water,[4]; [8],dissociates readily to the free base
same,dissociation of the salt in water,[4]; [9],dissociate to the free base
same,solubility at 24 h,"[4]; thermodynamic from solid, slurry in deionised water, ca. 24 hours, ambient (ca. 22° C.), initial pH 1.87, final pH 1.68",0.5 mg/mL
same,solubility,[5],< 0.1 mg/mL
same,relative thermodynamic stability of polymorphs,[6],thermodynamically more stable than Form 1
same,form change by XRPD after heating,[7],remain unchanged
